Usually Kd stands for a measure of binding affinity in units of concentration.

Values joined by “and” are separate entries in the source; they are usually repeats but may differ in a detail not shown here. Equal entries are not always repeated. Where two headings read alike, the source gives them in different places. Peptide text beside a SMILES is read from it.

Assay [1] deals with T1, human survivin (Homo sapiens, UniProt O15392).
T1 construct: His8 (pHIS8 vector); made in house; host or cells: E. coli BL21(DE3) star
The assay can be described thus: MicroScale Thermophoresis (MST) with chemically labelled survivin. In kind it is binding. Particulars: Buffer B (50 mM Tris pH 7.4, 150 mM NaCl, 10 mM MgCl2, 0.05% Tween-20, 1 mM DTT), 24 °C, three independent dilution series, read-out: KD, Robust (Bayesian). Here is the method: Survivin was expressed in E.coli BL21(DE3) star (Merck) cells using the pHIS8 expression vector used by Verdecia et al.[18] The expression was induced at OD600 0.6–0.8 in Luria Bertani (LB) media by 0.5 mM IPTG and incubated during 3–4 h at 30 °C. The cells were harvested at 6000 g during 20 min and resuspended in lysis buffer containing 50 mM Tris pH 8, 500 mM NaCl, 10 mM imidazole, 0.25 mM Pefabloc®SC (Sigma), […] DNAse (Sigma) and 0.2 mg/ml Lysozyme (Sigma). The cells were lysed with a high pressure homogenizer, using 3 cycles of […]. Survivin was purified by Ni^2+ chelation chromatography using 5 ml HisTrap FF column (GE Healthcare). Overnight dialysis in 50 mM Tris pH8, 150 mM NaCl and 1 mM DTT buffer and a gel filtration purification using a Superdex 75 100/300GL column (GE Healthcare) were done before chemical labelling. […] The borealin^6–20, hSgol1^291–312 and hSgol2^1066–1085 peptides were chemically synthetized (Genscript).
MicroScale Thermophoresis experiments were performed according to the NanoTemper technologies protocol in a Monolith NT.115 (green/blue) instrument (NanoTemper Technologies). […]
Survivin was labelled with the MO-L005 Monolith™ Protein Labeling Kit GREEN-MALEIMIDE (Cysteine Reactive) from NanoTemper Technologies. Peptides derived from hSgol1^291–312 ([…]) and hSgol2^1066–1085 ([…]) were analyzed in Buffer B (50 mM Tris pH 7.4, 150 mM NaCl, 10 mM MgCl2, 0.05% Tween-20 and 1 mM DTT). All samples were measured after an incubation of 5 min (according to “User Starting Guide Monolith® NT.115”).
The experiments were performed using 20% and 40% MST power and between 20–80% LED power at 24 °C. The MST traces were recorded using the standard parameters: 5 s MST power off, 30 s MST power on and 5 s MST power off. The reported measurement values are the combination of two effects: the fast, local environment dependent responses of the fluorophore to the temperature jump and the slower diffusive thermophoresis fluorescence changes. […]

Assay [2] deals with T1, human survivin. In words: PEPperCHIP peptide microarray, survivin binding to laser printed overlapping peptides. The settings on record: survivin 1, 10 and 100 μg/ml; secondary 6X His Tag Antibody DyLight680 antibody; fluorescence, LI-COR Odyssey; duplicate spots. Here is the method: We tested the Bayesian inference method on potential binding interactions of survivin identified by PEPperCHIP Peptide Microarray (PEPperPRINT, GmbH, Heidelberg, Germany). These microarrays consisted of overlapping peptides originating from candidate proteins from the human proteome including hSgol1, hSgol2 and the N-terminal region of borealin (1–93). The peptides were generated by peptide laser printing[25] (Fig. 2). […] The spots are consistently visible at 1, 10 and 100 μg/ml survivin concentrations in the assay buffer (Fig. 2). Quantitative analysis of the fluorescent intensities of the specific and control antibodies for borealin, hSgo1l and hSgol2 are shown in Supplementary Fig. S1, S2 and S3, respectively.
Pre-staining of one of the PEPperCHIP® Peptide Microarrays was done with the secondary 6X His Tag Antibody DyLight680 antibody at a dilution of 1:1000 and with monoclonal anti-HA (12CA5)-DyLight800 control antibody at a dilution of 1:1000 to investigate background interactions with the protein-derived peptides that could interfere with the main assays. Subsequent incubation of other peptide microarray copies with survivin at concentrations of 1 µg/ml, 10 µg/ml and 100 µg/ml in incubation buffer was followed by staining with the secondary 6X His Tag Antibody DyLight680 (Rockland Immunochemicals) antibody and the monoclonal anti-HA (12CA5)-DyLight800 control antibody (Rockland Immunochemicals) as well as by read-out at scanning intensities of 7/7 (red/green). HA and His tag control peptides were simultaneously stained as internal quality control to confirm the assay quality and to facilitate grid alignment for data quantification. Read-out was performed with a LI-COR Odyssey Imaging System, while quantification of spot intensities and peptide annotation were done with PepSlide® Analyzer.

Assay [3] addresses T2, human survivin (human, UniProt O15392 1-142, GREEN-MALEIMIDE (cysteine reactive) fluorescent label, in the MST experiments only).
T2 construct: survivin, human, 16 kDa; The His tag is detected on the array by a 6X His Tag antibody; for the MST no cleavage of the tag is told; On the array the protein was unlabelled, in the MST labelled on cysteine; source: E. coli BL21(DE3) star, purified (Ni2+ chelation chromatography, gel filtration)
In words: peptide or protein array; PEPperCHIP microarray of overlapping printed peptides; incubated with survivin at 1, 10 and 100 µg/ml in incubation buffer; detected with 6X His Tag Antibody DyLight680. The settings on record: both partners purified.

In assay [4] the target is T2, human survivin. In words: MST; labelled survivin held constant, serial dilution of the peptide; Buffer B (50 mM Tris pH 7.4, 150 mM NaCl, 10 mM MgCl2, 0.05% Tween-20, 1 mM DTT); 5 min incubation; 24 °C; T-jump + thermophoresis; three dilution series. The settings on record: both partners purified.
Assay [5] has as its target T2, human survivin. The assay is described as above. Particulars: both partners purified. The source holds these as a separate data set.
Assay [6] has as its target T2, human survivin. The assay can be described thus: MST; labelled survivin held constant, serial dilution of the peptide; Buffer A (50 mM Tris pH 8.0, 150 mM NaCl, 1 mM DTT, 0.05% Tween); 5 min incubation; 24 °C; T-jump + thermophoresis; three dilution series. Particulars: both partners purified.
Setting [7] is: 5 min incubation, median and HDI 95% interval of sampled posterior.

T1 sequence (O15392 whole entry): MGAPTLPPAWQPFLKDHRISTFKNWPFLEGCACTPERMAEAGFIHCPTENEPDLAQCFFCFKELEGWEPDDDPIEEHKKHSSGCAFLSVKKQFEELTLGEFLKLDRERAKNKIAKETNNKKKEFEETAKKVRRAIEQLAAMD
T2 sequence (O15392 whole entry): as above

Consider `CSCC[C@H](NC(=O)[C@H](CCCNC(=N)N)NC(=O)[C@H](CCCCN)NC(=O)[C@H](CO)NC(=O)[C@H](CCCCN)NC(=O)[C@H](CCCNC(=N)N)NC(=O)[C@H](CCCNC(=N)N)NC(=O)[C@H](CC(N)=O)NC(=O)[C@H](C)NC(=O)[C@H](CCCCN)NC(=O)[C@H](CCCNC(=N)N)NC(=O)[C@H](CCCCN)NC(=O)[C@H](CCC(=O)O)NC(=O)[C@H](CCC(=O)O)NC(=O)[C@H](CCCNC(=N)N)NC(=O)[C@@H](N)CCCCN)C(=O)N[C@@H](CO)C(=O)N[C@@H](CCCCN)C(=O)N[C@@H](Cc1ccc(O)cc1)C(=O)N[C@@H](CCCCN)C(=O)N[C@@H](CCC(=O)O)C(=O)N[C@@H](CC(N)=O)C(=O)O` [hSgol1^291–312] (H-KREEKRKANRRKSKRMSKYKEN-OH), for which the Kd on human survivin [1] (setting [7]) came out at 80.7 µM; at human survivin [1] (120 min incubation, median and HDI 95% interval, incubation time affected adversely the sample quality), 53.6 µM.

Consider `CSCC[C@H](NC(=O)[C@H](CCCCN)NC(=O)[C@H](CC(N)=O)NC(=O)[C@@H](NC(=O)[C@H](CCCCN)NC(=O)[C@H](CCCCN)NC(=O)[C@@H](NC(=O)[C@H](CCC(N)=O)NC(=O)[C@H](CS)NC(=O)[C@@H](N)CCC(=O)O)C(C)C)C(C)C)C(=O)N[C@H](C(=O)N[C@@H](CO)C(=O)N[C@@H](CCCCN)C(=O)N[C@@H](CO)C(=O)N[C@@H](CCCCN)C(=O)N[C@@H](CCCCN)C(=O)N[C@@H](CCCNC(=N)N)C(=O)N[C@@H](CCCCN)C(=O)N[C@H](C(=O)N[C@@H](CO)C(=O)O)[C@@H](C)O)[C@@H](C)O` [hSgol2^1066–1085] (H-ECQVKKVNKMTSKSKKRKTS-OH), for which, at human survivin [1] (setting [7]), the Kd was determined as 1.6 µM.

For “DTQERKREEKRKANR [adjacent hSgol1 peptide, laser printed on microarray]”, on human survivin [2], the “microarray response to survivin (spot signal)” value (“microarray response to survivin” below) was “to some extent”.

As to “ECQVKKVNKMTSKSK [hSgol2 peptide, laser printed on microarray]”, on human survivin [2], the “microarray response to survivin” value was “main responses with the clearest spot morphologies”.

Consider “EVSKIVTVSTGIKKK [other basic peptide on the microarray]”, for which the “microarray response to survivin” value on human survivin [2] is recorded as “did not react with survivin in a similar manner”.

Take “HQSSFLLSASKKKRI [other basic peptide on the microarray]”: on human survivin [2], the “microarray response to survivin” value is “did not react with survivin in a similar manner”.

Consider “KREEKRKANRRKSKR [basic hSgol1 peptide, laser printed on microarray]”, for which the “microarray response to survivin” value at human survivin [2] is “main responses with the clearest spot morphologies”.

With “KTFRKVKDSSSEKKR [other basic peptide on the microarray]”, the “microarray response to survivin” value at human survivin [2] was “did not react with survivin in a similar manner”.

Regarding “KVNKMTSKSKKRKTS [hSgol2 peptide, laser printed on microarray]”, the “microarray response to survivin” value at human survivin [2] was “main responses with the clearest spot morphologies”.

As to “RKANRRKSKRMSKYK [basic hSgol1 peptide, laser printed on microarray]”, the “microarray response to survivin” value on human survivin [2] was “main responses with the clearest spot morphologies”.

For the molecule “SPTDPKACNWKKYKF [other basic peptide on the microarray]”, the “microarray response to survivin” value at human survivin [2] was “did not react with survivin in a similar manner”.

B1: hSgol2 array peptide KVNKMTSKSKKRKTS (peptide)
peptide: KVNKMTSKSKKRKTS
notes: human Shugoshin-like 2 (hSgol2), 15-mer of the overlapping peptide array; source: laser-printed on the PEPperCHIP peptide microarray (PEPperPRINT)
For B1, the binding result with human survivin [3] is “binds”.

B2: hSgol2 array peptide ECQVKKVNKMTSKSK (peptide)
peptide: ECQVKKVNKMTSKSK
notes: as for B1
B2: the binding result with human survivin [3] is given as “binds”.

B3: hSgol1 array peptide RKANRRKSKRMSKYK (peptide)
peptide: RKANRRKSKRMSKYK
notes: human Shugoshin-like 1 (hSgol1), 15-mer of the overlapping peptide array; source: laser-printed on the PEPperCHIP peptide microarray (PEPperPRINT)
On to B3, for which the binding result with human survivin [3] is recorded as “binds”.

B4: hSgol2^1066–1085 peptide (peptide)
peptide: ECQVKKVNKMTSKSKKRKTS
notes: human Shugoshin-like 2 (hSgol2), residues 1066-1085; also called hSgol2 peptide; source: synthetic peptide (Genscript)
B4: the Kd in the assay with human survivin [4] was 1.6 µM and 1.4 µM.

B5: hSgol1 array peptide KREEKRKANRRKSKR (peptide)
peptide: KREEKRKANRRKSKR
notes: as for B3
With B5, the binding result with human survivin [3] is “binds”.

B6: hSgol1^291–312 peptide (peptide)
peptide: KREEKRKANRRKSKRMSKYKEN
notes: human Shugoshin-like 1 (hSgol1), residues 291-312, with the KEN motif; also called hSgol1 peptide; source: synthetic peptide (Genscript)
Turning to B6, in the assay with human survivin [5], the Kd amounted to 80.9 µM.

B7: borealin^6–20 peptide (peptide)
peptide: GSSRVAKTNSLRRRK
notes: borealin, human, residues 6-20; source: synthetic peptide (Genscript) for MST; laser-printed on the PEPperCHIP peptide microarray (PEPperPRINT)
With B7, in the assay with human survivin [6], the Kd is 10.8 µM and 10.2 µM and 10 µM.

(Values after PMC5711809, “Bayesian Analysis of MicroScale Thermophoresis Data to Quantify Affinity of Protein:Protein Interactions with Human Survivin” (Scientific Reports, 2017).)
